These results are taken from patent publication US9522928B2, “Mannosylated compounds useful for the prevention and the treatment of infectious diseases” (UNIVERSITE DE STRASBOURG, priority 2011, dated 2016).

Data set [1] concerns HIV-1 R5. As to the kind of experiment: HIV-1 R5 trans-infection of MAGI-CCR5 cells mediated by DCs. Type of data set: cell-based. The protocol:
ManC1, […] (comparative) and compounds of the invention (ManC24, ManC17, TriManC24, TriDiManC24, TriManinsatC24 and ManinsatC24) were serially diluted in water. Human DCs (1×10^5 in 200 μl ) were pre-treated with different concentrations of compounds, or mannan (Sigma) or culture medium alone, in RPMI 1640 medium containing 10% FBS for 45 min at 37° C., prior infection with HIV-1 (100 ng of p24Gag) for 3 h. Excess free virus and molecules were removed by three washes. DCs were then cocultured with MAGI -CCR5 cells (1×10^5) at 37° C. plated in a 48-well plate. After two days, viral infection of MAGI-CCR5 cells was quantitated following beta-galactosidase assays and enumerating blue cells by light microscopy.
The IC50 were determined by serial dilution of each compound. The trans-infection assays were repeated a minimum of three times, and the IC50 determined using KaleidaGraph.
To investigate the ability of the compounds of the invention to inhibit HIV-1 trans infection, we chose to infect human DCs in order to best mimic in vivo conditions. Human DCs were exposed to different compounds (namely, Mannan (control), ManC1 (comparative), ManC11 (comparative), ManC17, ManC24, TriManC24, TriDiManC24, ManinsatC24 and TriManinsatC24) for 45 min at 37° C., before inoculation with HIV-1 (strains R5 and X4) for 3 hours. After extensive washings to remove unbound virions and mannosides, DCs were then co-cultured with MAGI-CCR5 cells. This procedure allows precise quantification of HIV-1 replication in reporter MAGI-CCR5 cells by detection of beta-galactosidase activity. These cells express an integrated copy of the HIV long terminal repeat (LTR) fused to the beta-galactosidase reporter gene, and express the CD4 receptor and the CCR5 and CXCR4 co-receptors, required for entry of HIV-1 R5 and X4 respectively. Upon viral entry leading to viral Tat expression and activation of the LTR, these cells permit quantification of HIV trans-infection after two days.

Data set [2] concerns the target T1, DC-SIGN CRD (Homo sapiens, UniProt Q9NNX6).
T1 construct: human DC-SIGN (Lys62-Ala404, from R§D Systems); purchased R&D Systems ('R§D Systems' [sic])
T1 sequence (Q9NNX6 62-404): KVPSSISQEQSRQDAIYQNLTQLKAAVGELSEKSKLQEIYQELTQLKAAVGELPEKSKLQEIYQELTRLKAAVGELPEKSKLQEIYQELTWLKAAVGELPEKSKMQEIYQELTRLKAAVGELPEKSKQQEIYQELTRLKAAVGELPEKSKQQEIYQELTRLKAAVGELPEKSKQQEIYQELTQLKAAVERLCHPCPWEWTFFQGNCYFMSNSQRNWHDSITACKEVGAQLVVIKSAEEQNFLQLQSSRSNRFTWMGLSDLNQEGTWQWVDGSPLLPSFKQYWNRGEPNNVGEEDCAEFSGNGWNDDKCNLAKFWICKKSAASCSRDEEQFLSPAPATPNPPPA
Description: Surface plasmon resonance (SPR) binding to immobilised DC-SIGN CRD. The settings on record: Kd=koff/kon. The protocol:
SPR experiments were performed using a Biacore 3000. […] Biosensor assays were performed with HEPES-buffered saline (10 mM HEPES, 150 mM sodium chloride, pH 7.4) containing 0.005% surfactant P20 and 5 mM CaCl2 as a running buffer. All binding experiments were carried out at 25° C. with a constant flow rate of 20 μl/min. The different compounds dissolved in the running buffer (0.39 to 50 μM) were injected for 3 min, followed by a dissociation phase of 3 min. The sensor chip surface was regenerated after each experiment by injecting 10 μL of EDTA 0.5 M pH 8.0. A simple channel activated by EDC/NHS and deactivated with ethanolamine was used as control. The kinetic parameters were calculated using the BlAeval 4.1 software. Analysis was performed using the simple Langmuir binding model with separate ka/kd (kon/koff). The specific binding profiles were obtained after subtracting the response signal from the control channel and from blank-buffer injection. The fitting to each model was judged by the chi square value and randomness of residue distribution compared to the theoretical model (Langmuir binding 1:1).
The binding affinity of mannoside derivatives for the carbohydrate recognition domain (CRD) of DC-SIGN was assessed by surface plasmon resonance (SPR).
A CM5 sensor chip was functionalized with the DC-SIGN CRD, and increasing concentrations of the various compounds, mannan as a positive control and octaethyleneglycol (OEG) as a negative control, were injected over the chip surface. The association (kon) and dissociation (koff) rate constants and the resulting dissociation equilibrium constant (Kd=koff/kon) for each assessed compound were determined (see Table 1 hereunder).
For orientation: SPR reads the build-up and loss of mass on a sensor chip optically.

The nature of data set [3]: Critical micelle concentration (CMC), pyrene fluorescent probe. Type of data set: physicochemical. The settings on record: in water. The protocol: DiManinsatC24 was prepared according a procedure similar to that used for the preparation of TriDiManC24 except that: • pentacosanoic acid was replaced by 10,12-pentacosadiynoic acid, and • before the coupling with 10,12-pentacosadiynoic acid, the benzyl groups of compound 33 were replaced by acetyl group so as to provide compound 108 (as illustrated in FIG. 3E). ^1H NMR δ(ppm) (MeOD, 400 MHz) 4.87 (s, 3H), 4.73 (s, 3H), 3.64-3.50 (m, 14H), 3.46-3.20 (m, 76H), 2.97-2.93 (m, 6H), 2.33 (t, 6H, J=6.8 Hz), 2.09-1.96 (m, 6H), 1.08-1.05 (m, 32H), 0.66 (t, 3H, J=6.8 Hz). ^13C NMR δ (ppm) (MeOD, 100 MHz) 173.7, 168.8, 104.2, 101.2, 80.6, 80.4, 75.1, 74.7, 72.5, 72.2, 72.1, 71.9, 71.8, 71.7, 71.6, 71.4, 69.4, 69.1, 68.9, 68.7, 68.6, 68.0, 63.2, 63.1, 42.2, 37.0, 34.8, 33.7, 33.1, 30.8, 30.7, 30.6, 30.5, 30.4, 30.2, 29.5, 28.1, 27.0, 26.0, 23.7, 19.7, 14.4. […] The hydrodynamic diameters of micelles of glycolipids were measured in water using a Zetasizer Nano ZS system (Malvern Instruments). The CMCs were measured using pyrene as an extrinsic fluorescent probe and were carried out as described (Perino et al., 2011). […] Fluorescent emission of pyrene was measured at 25° C. using a Fluorolog spectrofluorometer (Jobin Yvon, Horiba). The intensities of fluorescence emission were determined at 374 nm (I374) and at 383 nm (I383), with an excitation at a 339 nm wavelength. […]

pKd: −log10 of the molar value. Entries after “also recorded” stand apart in the source; their conditions may differ.

On to `CCCCCCCCCCCCCCCCCCCCCCCCC(=O)NC(COCCC(=O)NCCOCCOCCOCCOC1OC(CO)C(O)C(O)C1OC1OC(CO)C(O)C(O)C1O)(COCCC(=O)NCCOCCOCCOCCOC1OC(CO)C(O)C(O)C1OC1OC(CO)C(O)C(O)C1O)COCCC(=O)NCCOCCOCCOCCOC1OC(CO)C(O)C(O)C1OC1OC(CO)C(O)C(O)C1O` (centres unmarked) [TriDiManC24], for which the “residual level of trans-infection” value in data set [1] turned out to be 40%. In addition, in data set [2], the “KD (μM)” value was “low micromolar range” and the pKd (usually the negative decadic logarithm of the Kd, by convention in mol/L) is 5.49. The “KD (μM)” value in data set [2] (listed as TriDimanC24) is given as “Sub-micromolar”. For the same molecule, in data set [3], the “ability to form micelles (in words)” value was “unable to form micelles; also recorded: failed to form micelles”.
